Data reported in patent US20160199351A1, “COMPOSITIONS AND METHODS FOR INHIBITING FUNGAL INFECTIONS” (priority 2015, published 2016).

System: Scedosporium apiospermum
Assay: MIC, CLSI M38-A2 broth dilution (Table 1)
Format: cell-based

## NCC(=O)Nc1ccc(-n2nc(C(F)(F)F)cc2-c2ccc3c(ccc4ccccc43)c2)cc1 [AR-12, 2-amino-N-(4-(5-(phenanthren-2-yl)-3-(trifluoromethyl)-1H-pyrazol-1-yl)phenyl)acetamide]
Isolate SA1, 72 hours
  MIC 50%: 2 gg/m1
  MIC 100%: 2 gg/m1
Isolate SA2, 72 hours
  MIC 50%: 1 gg/m1
  MIC 100%: 2 gg/m1
